According to US20030157200A1, “Use of oligosaccharides to stimulate beta-endorphin production” (priority 2000, published 2003):

Tested on: normal human keratinocytes
Test: Synthesis/secretion of β-endorphin by normal human keratinocytes, assayed by EIA
Type: cell-based
Settings: 24 h; for effect on the production of β-endorphin by normal human keratinocytes (in words): normal human keratinocytes in culture
Experimental: Norman human keratinocytes are cultivated to the point of confluence on a 24-well plate and then incubated in a culture medium for 24 hours in the presence of dibutiryl CAMP (2 mM), interleukin-1β (IL-1β) (500 pg/ml) and the test product, i.e. in this case either Tephrosia purpurea extracts according to Example 1, or stachyose, or ciceritol, at the doses indicated in Tables I, II and III respectively.
Each Tephrosia extract obtained by the process of Example 1 is provided accurately weighed and redissolved at a concentration of 50 mg/ml in an ethanol/water mixture (1/1).
Antiproteases—aprotinin 5 μg/ml, leupeptin 1 μg/ml and PMSF 1 mM —are added to each well in order to limit the action of the proteases.
Each experimental point is duplicated.
After incubation for 24 h, the culture supernatants are recovered and frozen at −80° C.
Positive stimulation controls are carried out in parallel, the cells being treated for 24 h, as above, with either IL-1β 500 pg/ml or dibutyryl CAMP 2 mM.
The β-endorphin secreted is assayed by EIA (kit from Peninsula Laboratoiries) and expressed in pg/ml.
The procedure followed is the same as in the experiments with Tephrosia purpurea extracts except that stachyose and ciceritol are used at the doses indicated in Table II, and the results obtained are indicated in Table II below.

OC[C@H]1O[C@H](OC[C@H]2O[C@H](OC[C@H]3O[C@H](O[C@]4(CO)O[C@H](CO)[C@@H](O)[C@@H]4O)[C@H](O)[C@@H](O)[C@@H]3O)[C@H](O)[C@@H](O)[C@H]2O)[C@H](O)[C@@H](O)[C@H]1O [Stachyose, O-α-D-galactopyranosyl-[1→6]-O-α-D-galactopyranosyl-[1→6]-β-D-fructofuranosyl-α-D-glucopyranoside]
β-endorphin secreted (20 ng/ml, Table II stachyose experiment, Control 10 ± 3): 16 ± 1 pg/mL | β-endorphin secreted (100 ng/ml, Table II stachyose experiment, Control 10 ± 3): 22 ± 2 pg/mL | β-endorphin secreted (500 ng/ml, Table II stachyose experiment, Control 10 ± 3): 30 ± 13 pg/mL | effect on the production of β-endorphin by normal human keratinocytes (in words): stimulating effect

CO[C@H]1[C@H](O)[C@@H](O[C@H]2O[C@H](CO[C@H]3O[C@H](CO)[C@H](O)[C@H](O)[C@H]3O)[C@H](O)[C@H](O)[C@H]2O)[C@@H](O)[C@H](O)[C@@H]1O [Ciceritol, O-α-D-galactopyranosyl-[1→6]-O-α-D-galactopyranosyl-[1→2]-4-O-methyl-D-chiroinositol]
β-endorphin secreted (20 ng/ml, Table II ciceritol first series, Control 1 ± 2): 8 ± 3 pg/mL | β-endorphin secreted (64 ng/ml, Table II ciceritol second series, Control 3 ± 3): 44 ± 7 pg/mL | β-endorphin secreted (100 ng/ml, Table II ciceritol first series, Control 1 ± 2): 8 ± 4 pg/mL | β-endorphin secreted (500 ng/ml, Table II ciceritol first series, Control 1 ± 2): 9 ± 5 pg/mL | effect on the production of β-endorphin by normal human keratinocytes (in words): stimulating effect

IL-1β: interleukin-1β, positive stimulation control
β-endorphin secreted (500 pg/ml, positive control, Table I batch B1 block, Control 3 ± 4): 35 ± 5 pg/mL | β-endorphin secreted (500 pg/ml, positive control, Table I batch B2 experiment, Control 3 ± 4): 35 ± 5 pg/mL | β-endorphin secreted (500 pg/ml, positive control, Table I batch B3 first series, Control 1 ± 1): 17 ± 3 pg/mL | β-endorphin secreted (500 pg/ml, positive control, Table I batch B3 second series, Control 1 ± 3): 25 ± 4 pg/mL | β-endorphin secreted (500 pg/ml, positive control, Table II ciceritol first series, Control 1 ± 2): 17 ± 3 pg/mL | β-endorphin secreted (500 pg/ml, positive control, Table II ciceritol second series, Control 3 ± 3): 35 ± 3 pg/mL | β-endorphin secreted (500 pg/ml, positive control, Table II stachyose experiment, Control 10 ± 3): 25 ± 4 pg/mL | effect on the production of β-endorphin by normal human keratinocytes (in words): stimulated the production of β-endorphin

CCCC(=O)Nc1ncnc2c1ncn2[C@@H]1O[C@@H]2COP(=O)(O)O[C@H]2[C@H]1OC(=O)CCC [dibutyryl cAMP]
β-endorphin secreted (2 mM, positive control, Table I batch B1 block, Control 3 ± 4): 87 ± 12 pg/mL | β-endorphin secreted (2 mM, positive control, Table I batch B2 experiment, Control 3 ± 4): 87 ± 12 pg/mL | β-endorphin secreted (2 mM, positive control, Table I batch B3 first series, Control 1 ± 1): 10 ± 1 pg/mL | β-endorphin secreted (2 mM, positive control, Table I batch B3 second series, Control 1 ± 3): 22 ± 1 pg/mL | β-endorphin secreted (2 mM, positive control, Table II ciceritol first series, Control 1 ± 2): 10 ± 1 pg/mL | β-endorphin secreted (2 mM, positive control, Table II ciceritol second series, Control 3 ± 3): 87 ± 8 pg/mL | β-endorphin secreted (2 mM, positive control, Table II stachyose experiment, Control 10 ± 3): 22 ± 1 pg/mL | effect on the production of β-endorphin by normal human keratinocytes (in words): stimulated the production of β-endorphin
